Here are results for seven compounds from patent publication US20080233127A1, “IMIDAZOLOPYRIMIDINE ANALOGS AND THEIR USE AS PI3 KINASE AND MTOR INHIBITORS” (Wyeth, priority 2007, published 2008).

The structures appear in SMILES notation.

For data set [1], the target named is PI3 Kinase. The data set can be described thus: PI3K fluorescence polarization assay. Format: biochemical. The conditions noted are these: 25 μM ATP, diC8-PI(4,5)P2 substrate, 1 hour at 25° C.; read-out: PI3 Kinase Median IC50. Background: Polarisation of emitted light reports the rotation of a fluorescent probe.
The target of data set [2] is T1, human TOR (Homo sapiens, UniProt P42345).
T1 construct: FLAG
Nature of the data set: mTOR enzyme assay (DELFIA format, purified FLAG-TOR, His6-S6K substrate). Format: biochemical. The following applies: 100 μM ATP, 1.25 μM His6-S6K, 2 hours at room temperature; read-out: TOR Kinase Median IC50.

`Nc1ncc(-c2nc(N3CCOCC3)c3ncn(C4CCN(Cc5ccccc5)CC4)c3n2)cn1` [Compound 31, 5-[9-(1-benzylpiperidin-4-yl)-6-morpholin-4-yl-9H-purin-2-yl]pyrimidin-2-amine] came in with a melting point of 238 to 240 °C. Moreover, in data set [1], the IC50 is 43 nM. Moreover, in data set [2], the IC50 came to 220 nM.
As for `Nc1ccc(-c2nc(N3CCOCC3)c3ncn(C4CCN(Cc5ccccc5)CC4)c3n2)cn1` [Compound 32, 5-[9-(1-benzylpiperidin-4-yl)-6-morpholin-4-yl-9H-purin-2-yl]pyridin-2-amine], the melting point was in the range of 198 to 200 °C. In data set [1], the IC50 is 160 nM. Moreover, in data set [2], the IC50 came out at 120 nM.
Regarding `Oc1cncc(-c2nc(N3CCOCC3)c3ncn(C4CCN(Cc5ccccc5)CC4)c3n2)c1` [Compound 87, 5-[9-(1-benzylpiperidin-4-yl)-6-morpholin-4-yl-9H-purin-2-yl]pyridin-3-ol], the figures for the IC50 in data set [1] and in data set [2] were 87 nM and 550 nM, respectively.
For `Oc1cncc(-c2nc(N3CCOCC3)c3ncn(C4CCN(Cc5ccc(F)nc5)CC4)c3n2)c1` [Compound 88, 5-(9-{1-[(6-fluoropyridin-3-yl)methyl]piperidin-4-yl}-6-morpholin-4-yl-9H-purin-2-yl)pyridin-3-ol] the same measures were 85 nM and 500 nM.
As to `CNC(=O)Nc1ccc(-c2nc(N3CCOCC3)c3ncn(C4CCN(Cc5cccnc5)CC4)c3n2)cc1` [Compound 89, 1-methyl-3-(4-(6-morpholino-9-(1-(pyridin-3-ylmethyl)piperidin-4-yl)-9H-purin-2-yl)phenyl)urea], the IC50 in data set [1] was 340 nM; in data set [2] it was 9.7 nM.
For `CCNC(=O)Nc1ccc(-c2nc(N3CCOCC3)c3ncn(C4CCN(Cc5cccnc5)CC4)c3n2)cc1` [Compound 90, 1-ethyl-3-(4-(6-morpholino-9-(1-(pyridin-3-ylmethyl)piperidin-4-yl)-9H-purin-2-yl)phenyl)urea], the IC50 in data set [1] was 1350 nM; in data set [2] it was 12 nM.
For the compound `C=CC(=O)n1cnc2c(N3CCOCC3)nc(-c3cccc(O)c3)nc21` [Compound 91, 1-(2-(3-hydroxyphenyl)-6-morpholino-9H-purin-9-yl)prop-2-en-1-one], the 50% inhibitory concentration (IC50) in data set [1] was 43 nM; in data set [2], 73 nM.

Broadly, the IC50 is the concentration that inhibits the measured activity by half. What is called melting point is the temperature, or range, at which the solid turns liquid.
